Experiments:
[1] = Half life in Sprague-Dawley rat plasma at 1 mg/kg, IV […]; assay type: ADME, organism-based
[2] = target: T1, Leucine-rich repeat serine/threonine-protein kinase 2 (Homo sapiens, UniProt Q5S007, G2019S); assay: Inhibition of recombinant human GST tagged truncated LRRK2 G2019S mutant using fluorescein-labeled LRRKtide as substrate in presence of ATP preincubated for 50 mins followed by anti-phospho-LRRKtide antibody addition and measured after 30 mins by TR-FRET based Lanthascreen kinase activity assay
[3] = target: T2, Leucine-rich repeat serine/threonine-protein kinase 2 (Homo sapiens, UniProt Q5S007); assay: Inhibition of recombinant human LRRK2 WT using fluorescein-labeled LRRKtide as substrate in presence of ATP preincubated for 50 mins followed by anti-phospho-LRRKtide antibody addition and measured after 30 mins by TR-FRET based Lanthascreen kinase activity assay
[4] = target: T1, Leucine-rich repeat serine/threonine-protein kinase 2; assay: Inhibition of LRRK2-pSer935 in LRRK2 G2019S mutant expressing human HEK293 cells and measured after 48 hrs by ICW assay; assay type: cell-based
[5] = target: T2, Leucine-rich repeat serine/threonine-protein kinase 2; assay: Inhibition of LRRK2-pSer935 in LRRK2 WT expressing human HEK293 cells and measured after 48 hrs by ICW assay; assay type: cell-based
[6] = target: T3, Phosphatidylinositol 4-kinase beta (Homo sapiens, UniProt Q9UBF8); assay: Inhibition of human PIK4CB (M1/M828) WT expressed in mammalian system assessed as remaining activity measured at 1 uM by DiscoveRx KINOMEscan assay relative to control
Target sequence in this assay (Q9UBF8 2-816 limits assumed): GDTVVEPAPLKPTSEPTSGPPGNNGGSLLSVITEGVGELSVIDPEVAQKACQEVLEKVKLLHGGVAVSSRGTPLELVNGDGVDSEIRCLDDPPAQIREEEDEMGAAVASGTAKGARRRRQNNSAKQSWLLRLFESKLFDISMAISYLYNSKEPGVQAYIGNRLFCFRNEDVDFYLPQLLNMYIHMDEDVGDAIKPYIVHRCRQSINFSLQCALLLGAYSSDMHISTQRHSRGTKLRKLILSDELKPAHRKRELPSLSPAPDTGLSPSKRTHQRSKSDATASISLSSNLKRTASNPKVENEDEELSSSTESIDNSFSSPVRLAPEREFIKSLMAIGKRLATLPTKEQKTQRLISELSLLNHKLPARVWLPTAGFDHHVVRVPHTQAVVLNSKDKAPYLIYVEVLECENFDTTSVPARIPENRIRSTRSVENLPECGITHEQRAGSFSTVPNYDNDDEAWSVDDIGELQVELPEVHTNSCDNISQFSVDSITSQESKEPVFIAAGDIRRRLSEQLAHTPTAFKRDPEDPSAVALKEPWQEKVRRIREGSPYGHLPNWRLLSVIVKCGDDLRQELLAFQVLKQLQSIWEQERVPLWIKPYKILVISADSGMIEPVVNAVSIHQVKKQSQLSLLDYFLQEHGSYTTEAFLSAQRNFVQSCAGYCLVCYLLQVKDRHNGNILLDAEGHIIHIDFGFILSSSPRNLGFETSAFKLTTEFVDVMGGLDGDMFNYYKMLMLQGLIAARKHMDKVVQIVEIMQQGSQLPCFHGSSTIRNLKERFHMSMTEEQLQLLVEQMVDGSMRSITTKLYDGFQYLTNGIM

[7] = target: T2, Leucine-rich repeat serine/threonine-protein kinase 2; assay: Binding affinity to human LRRK2 WT expressed in mammalian system assessed as dissociation constant measured at 1 uM by DiscoveRx KINOMEscan assay
[8] = target: T1, Leucine-rich repeat serine/threonine-protein kinase 2; assay: Binding affinity to human LRRK2 (H970/E2527) G2019S mutant expressed in mammalian system assessed as dissociation constant measured at 1 uM by DiscoveRx KINOMEscan assay
[9] = target: Receptor-type tyrosine-protein kinase FLT3 (Homo sapiens, UniProt P36888, D835V/ITD); assay: Binding affinity to human FLT3 ITD, D835V (V592/Y969) mutant expressed in mammalian system assessed as dissociation constant measured at 1 uM by DiscoveRx KINOMEscan assay
[10] = target: T3, Phosphatidylinositol 4-kinase beta; assay: Binding affinity to human PIK4CB (M1/M828) WT expressed in mammalian system assessed as dissociation constant measured at 1 uM by DiscoveRx KINOMEscan assay
Target sequence in this assay (Q9UBF8 whole entry): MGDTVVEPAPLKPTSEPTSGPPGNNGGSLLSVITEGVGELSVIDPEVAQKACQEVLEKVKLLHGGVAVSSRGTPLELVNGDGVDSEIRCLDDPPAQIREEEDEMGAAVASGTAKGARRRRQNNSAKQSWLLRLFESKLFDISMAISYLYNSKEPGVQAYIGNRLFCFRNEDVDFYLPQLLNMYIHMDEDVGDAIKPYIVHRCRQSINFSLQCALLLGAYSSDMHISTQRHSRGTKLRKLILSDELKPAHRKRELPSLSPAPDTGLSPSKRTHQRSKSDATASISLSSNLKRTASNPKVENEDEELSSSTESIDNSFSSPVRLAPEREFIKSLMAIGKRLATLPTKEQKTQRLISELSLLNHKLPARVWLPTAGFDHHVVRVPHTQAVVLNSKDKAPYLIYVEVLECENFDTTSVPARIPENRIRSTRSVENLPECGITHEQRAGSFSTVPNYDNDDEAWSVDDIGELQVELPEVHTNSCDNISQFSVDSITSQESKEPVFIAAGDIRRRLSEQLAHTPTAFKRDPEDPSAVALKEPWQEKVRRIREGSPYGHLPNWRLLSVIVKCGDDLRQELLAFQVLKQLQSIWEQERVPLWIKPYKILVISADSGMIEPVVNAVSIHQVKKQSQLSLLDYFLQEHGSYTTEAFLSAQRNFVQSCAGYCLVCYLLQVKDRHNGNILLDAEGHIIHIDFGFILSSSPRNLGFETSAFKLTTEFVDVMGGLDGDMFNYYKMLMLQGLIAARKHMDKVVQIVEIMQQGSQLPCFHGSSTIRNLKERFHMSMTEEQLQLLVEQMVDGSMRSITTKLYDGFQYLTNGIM

[11] = target: Mitogen-activated protein kinase kinase kinase 1 (Homo sapiens, UniProt Q13233); assay: Inhibition of MAP3K1 expressed in human PBMCs measured by KiNativ profiling analysis
[12] = target: T3, Phosphatidylinositol 4-kinase beta; assay: Inhibition of PI4KB expressed in human PBMCs measured at 10 uM by KiNativ profiling analysis relative to control
Target sequence in this assay (Q9UBF8 2-816 limits assumed): as the sequence (Q9UBF8 2-816 limits assumed) above

[13] = target: T4, Interleukin-1 receptor-associated kinase 3 (Homo sapiens) (UniProt Q9Y616); assay: Inhibition of IRAK3 expressed in human PBMCs measured at 10 uM by KiNativ profiling analysis relative to control
T4 sequence (whole entry): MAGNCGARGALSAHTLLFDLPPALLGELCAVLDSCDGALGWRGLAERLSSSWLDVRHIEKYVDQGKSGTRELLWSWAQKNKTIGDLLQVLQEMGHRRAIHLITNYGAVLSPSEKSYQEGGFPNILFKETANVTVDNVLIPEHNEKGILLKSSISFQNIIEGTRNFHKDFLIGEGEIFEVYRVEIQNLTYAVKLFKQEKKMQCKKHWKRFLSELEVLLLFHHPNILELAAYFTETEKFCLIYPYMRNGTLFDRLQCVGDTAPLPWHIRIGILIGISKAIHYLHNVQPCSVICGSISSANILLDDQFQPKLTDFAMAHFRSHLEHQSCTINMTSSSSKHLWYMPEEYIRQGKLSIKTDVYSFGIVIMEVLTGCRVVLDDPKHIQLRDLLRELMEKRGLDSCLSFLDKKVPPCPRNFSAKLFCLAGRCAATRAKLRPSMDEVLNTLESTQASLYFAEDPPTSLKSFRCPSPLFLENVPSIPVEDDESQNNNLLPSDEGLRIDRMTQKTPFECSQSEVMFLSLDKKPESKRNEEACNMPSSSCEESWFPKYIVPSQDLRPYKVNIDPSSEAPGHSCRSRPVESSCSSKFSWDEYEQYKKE

[14] = target: T5, Leucine-rich repeat serine/threonine-protein kinase 2 (Mus musculus, UniProt Q5S006); assay: Inhibition of LRRK2-WT-pSER935 in C57BL/6 mouse brain at 10 to 150 mg/kg and measured after 1 hrs by western blotting; assay type: organism-based
[15] = target: T5, Leucine-rich repeat serine/threonine-protein kinase 2; assay: Inhibition of LRRK2-WT in C57BL/6 mouse brain at 10 to 150 mg/kg and measured after 1 hrs by western blotting; assay type: organism-based
[16] = target: T6, Adenosine receptor A2b (Homo sapiens) (UniProt P29275); assay: Binding affinity to human Adenosine receptor A2b at 1 uM by radioligand binding assay relative to control
T6 sequence (whole entry): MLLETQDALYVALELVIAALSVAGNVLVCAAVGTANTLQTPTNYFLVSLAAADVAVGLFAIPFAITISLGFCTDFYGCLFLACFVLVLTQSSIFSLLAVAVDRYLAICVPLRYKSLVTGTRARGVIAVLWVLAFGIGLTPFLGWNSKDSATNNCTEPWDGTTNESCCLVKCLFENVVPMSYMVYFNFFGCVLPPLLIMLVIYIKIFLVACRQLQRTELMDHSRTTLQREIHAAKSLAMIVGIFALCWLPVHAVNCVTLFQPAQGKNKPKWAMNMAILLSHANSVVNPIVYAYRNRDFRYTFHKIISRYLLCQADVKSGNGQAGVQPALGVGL

[17] = Mutagenecity in Salmonella enterica subsp. enterica serovar Typhimurium by Ames test; assay type: toxicity
[18] = Clearance in Sprague dawley rat plasma at 1 mg/kg, IV relative to liver blood flow; assay type: ADME, organism-based
[19] = Volume of distribution in steady state in Sprague-Dawley rat plasma at 1 mg/kg, IV […]; assay type: ADME, organism-based; settings: read-out: Vdss
[20] = Half life in steady state in Beagle dog plasma at 1 mg/kg, IV […]; assay type: ADME, organism-based, Canis lupus familiaris
[21] = Oral bioavailability in Sprague-Dawley rat plasma at 2 mg/kg relative to liver blood flow; assay type: ADME, organism-based
[22] = Drug uptake in Mdr1a/ 1b-BCRP knockout C57BL/6 mouse brain at 5 mg/kg, sc and measured after 0.5 hrs; assay type: ADME, organism-based; settings: read-out: Drug uptake
[23] = Ratio of drug level in C57BL/6 WT mouse brain to plasma at 5 mg/kg, sc and measured after 0.5 hrs; assay type: ADME, organism-based; settings: for Kp at 0.5 h: C57BL/6, mouse, brain and plasma
[24] = Ratio of drug level in Md1a/1b C57BL/6 mouse brain to plasma at 5 mg/kg, sc and measured after 0.5 hrs; assay type: ADME, organism-based
[25] = Ratio of unbound drug level in C57BL/6 WT mouse brain to plasma at 5 mg/kg, sc and measured after 0.5 hrs; assay type: ADME, organism-based; settings: C57BL/6, mouse
[26] = tested on: BCRP (human); assay: Efflux ratio of apparent permeability in MDCK cells expressing human BCRP; assay type: ADME, cell-based, Canis lupus familiaris; settings: dog
[27] = tested on: BCRP (human); assay: Apparent permeability in MDCK cells expressing human BCRP; assay type: ADME, cell-based, Canis lupus familiaris; settings: dog

T5 sequence (Q5S006 whole entry): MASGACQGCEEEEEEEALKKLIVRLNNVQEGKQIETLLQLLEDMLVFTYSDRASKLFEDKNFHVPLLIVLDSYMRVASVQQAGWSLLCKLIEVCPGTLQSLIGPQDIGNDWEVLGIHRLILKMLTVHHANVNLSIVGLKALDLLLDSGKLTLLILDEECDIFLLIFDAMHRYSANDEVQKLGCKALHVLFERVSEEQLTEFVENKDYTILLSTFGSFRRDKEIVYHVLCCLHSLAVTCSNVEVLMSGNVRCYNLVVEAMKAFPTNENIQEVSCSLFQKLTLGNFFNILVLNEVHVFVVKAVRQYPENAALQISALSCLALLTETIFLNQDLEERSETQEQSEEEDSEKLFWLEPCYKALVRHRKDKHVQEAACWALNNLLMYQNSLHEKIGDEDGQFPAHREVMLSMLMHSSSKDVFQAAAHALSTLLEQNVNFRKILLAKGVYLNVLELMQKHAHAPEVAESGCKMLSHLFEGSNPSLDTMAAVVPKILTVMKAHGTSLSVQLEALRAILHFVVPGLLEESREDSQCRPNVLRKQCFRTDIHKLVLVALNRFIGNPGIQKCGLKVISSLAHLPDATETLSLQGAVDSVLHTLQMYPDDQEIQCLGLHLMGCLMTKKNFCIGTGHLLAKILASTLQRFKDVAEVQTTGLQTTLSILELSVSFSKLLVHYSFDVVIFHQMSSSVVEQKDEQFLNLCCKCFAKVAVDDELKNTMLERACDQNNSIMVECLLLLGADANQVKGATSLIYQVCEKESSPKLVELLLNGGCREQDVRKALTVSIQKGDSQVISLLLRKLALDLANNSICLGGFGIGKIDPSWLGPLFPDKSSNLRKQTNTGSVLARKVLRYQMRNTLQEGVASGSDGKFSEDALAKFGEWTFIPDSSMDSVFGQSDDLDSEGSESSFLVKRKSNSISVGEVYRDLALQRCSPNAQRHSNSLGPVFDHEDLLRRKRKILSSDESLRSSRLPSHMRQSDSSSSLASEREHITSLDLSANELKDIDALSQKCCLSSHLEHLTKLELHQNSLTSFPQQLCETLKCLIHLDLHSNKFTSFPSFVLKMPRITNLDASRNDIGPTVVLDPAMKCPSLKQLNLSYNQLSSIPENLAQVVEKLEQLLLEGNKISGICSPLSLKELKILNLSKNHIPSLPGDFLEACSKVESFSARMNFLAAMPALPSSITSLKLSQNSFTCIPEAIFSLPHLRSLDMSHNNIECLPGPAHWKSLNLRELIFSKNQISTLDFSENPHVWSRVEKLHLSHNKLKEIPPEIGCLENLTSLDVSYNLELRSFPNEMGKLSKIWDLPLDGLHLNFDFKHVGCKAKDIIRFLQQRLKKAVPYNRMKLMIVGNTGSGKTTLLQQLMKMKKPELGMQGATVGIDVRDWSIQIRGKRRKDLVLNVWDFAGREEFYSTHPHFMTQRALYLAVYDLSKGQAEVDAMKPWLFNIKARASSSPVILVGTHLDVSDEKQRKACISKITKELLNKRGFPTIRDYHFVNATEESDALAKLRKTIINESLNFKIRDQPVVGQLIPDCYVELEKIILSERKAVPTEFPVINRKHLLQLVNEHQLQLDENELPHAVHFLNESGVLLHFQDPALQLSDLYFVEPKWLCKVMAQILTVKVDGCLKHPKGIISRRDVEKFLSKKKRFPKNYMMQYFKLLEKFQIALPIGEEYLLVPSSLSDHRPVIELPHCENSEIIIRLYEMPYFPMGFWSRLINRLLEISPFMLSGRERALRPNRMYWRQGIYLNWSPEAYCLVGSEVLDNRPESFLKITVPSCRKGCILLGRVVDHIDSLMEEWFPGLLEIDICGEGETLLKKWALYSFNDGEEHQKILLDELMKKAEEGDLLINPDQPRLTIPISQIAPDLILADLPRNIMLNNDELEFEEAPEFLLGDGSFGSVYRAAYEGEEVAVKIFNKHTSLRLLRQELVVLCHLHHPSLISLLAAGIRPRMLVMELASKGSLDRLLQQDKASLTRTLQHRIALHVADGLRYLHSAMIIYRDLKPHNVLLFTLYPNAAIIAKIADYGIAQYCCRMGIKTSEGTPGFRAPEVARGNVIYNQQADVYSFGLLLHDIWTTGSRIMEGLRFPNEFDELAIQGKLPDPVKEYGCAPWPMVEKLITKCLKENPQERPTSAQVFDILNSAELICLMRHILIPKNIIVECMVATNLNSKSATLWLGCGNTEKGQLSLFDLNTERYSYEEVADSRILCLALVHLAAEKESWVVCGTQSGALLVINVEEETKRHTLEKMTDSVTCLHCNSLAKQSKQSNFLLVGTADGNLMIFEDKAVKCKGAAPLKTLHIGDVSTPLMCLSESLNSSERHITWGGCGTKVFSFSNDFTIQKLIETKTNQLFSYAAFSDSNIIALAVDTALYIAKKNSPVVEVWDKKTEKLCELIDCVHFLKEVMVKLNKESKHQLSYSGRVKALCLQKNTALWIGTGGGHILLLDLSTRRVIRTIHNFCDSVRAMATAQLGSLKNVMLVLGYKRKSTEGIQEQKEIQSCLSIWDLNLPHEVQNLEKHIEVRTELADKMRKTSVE

SMILES | half-life [1] [min] | IC50 [2] [nM] | IC50 [3] [nM] | IC50 [4] [nM] | IC50 [5] [nM] | Activity [6] [%] | Kd [7] [nM] | Kd [8] [nM] | Kd [9] [nM] | Kd [10] [nM] | IC50 [11] [nM] | inhibition [12] [%] | inhibition [13] [%] | IC50 [14] [nM] | IC50 [15] [nM] | inhibition [16] [%] | Activity [17] | clearance [18] [mL/min/kg] | Vd [19] [L/kg] | half-life [20] [min] | also measured
Cc1c(Nc2nc(N)c3c(C#N)c(N4CCC[C@H]4C)n(C)c3n2)cnn1[C@H]1CCOC1 | 12 | 14 | 23 | 51 | 140 | < 37 | 6.6 | 5.5 | 67 | 730 | 840 | 29 | 37 | 23 | 22 | 26 | Non-Toxic | 76.7 | 1.1 | 36 | bioavailability [21]: < 1%; concentration at 0.5 h [22]: 1080 ng/g; Kp at 0.5 h [23]: 0.15; Kp at 0.5 h [24]: 0.65; Kp uu at 0.5 h [25]: 0.02; efflux ratio [26]: 22; Papp [27]: 1.2 ×10⁻⁶ cm/s
Cc1c(Nc2nc(N)c3c(C#N)c(N4CCC[C@H]4C)n(C)c3n2)cnn1[C@@H]1CCOC1 | 6 | 12 | 20 | 80 | 180 | < 37 | 3.7 | 3.9 | 470 | 850 | 1100 | 45 | -6 | 16 | 11 | 18 | Non-Toxic | 158 | 1.7 | 30 | bioavailability [21]: 5%; concentration at 0.5 h [22]: 2060 ng/g; Kp at 0.5 h [23]: 0.06; Ratio ([23]; mouse, brain, 5 mg/kg, 0.5 h): 0.07; Kp at 0.5 h [24]: 1.05; Kp uu at 0.5 h [25]: 0.02; efflux ratio [26]: 34; Papp [27]: 0.7 ×10⁻⁶ cm/s
